Source: PMC8096218, “Global RNA profiles show target selectivity and physiological effects of peptide-delivered antisense antibiotics” (Nucleic Acids Research, 2021)
Read-outs that look alike come from different tables or passages of the source.

Assays:
Salmonella wt = test: Kinetics of bactericidal effects (cfu determination and spot assay); type: cell-based, Salmonella enterica serovar Typhimurium; settings: ∼10^6 cfu/ml, 5 μM KFF-acpP, 5 μM RXR-acpP, 10 μM Tat-acpP versus scrambled counterparts; for time post treatment from which killing / reduced cfu/ml was visible: time points 15, 20, 40, 60, 120 min, performed three times
Procedure: An overnight bacterial cell culture was diluted 1:100 in fresh MHB and grown to OD600 0.5. The obtained culture was diluted to approximately 10^6 cfu/ml in non-cation-adjusted MHB. Afterwards, aliquots of 10 μl were directly used as input condition for cfu determination and spot assay on LB agar plates. Regarding the latter, serial dilutions were prepared as indicated, to evaluate the alteration of living bacteria upon exposure to the different PPNAs. At the same time, 190 μl of this bacterial solution was placed into 2 ml eppendorf tubes along with 10 μl of a 20× on-target or scrambled PPNA solution, adjusting the indicated MICs. At the indicated time points post treatment, aliquots were used for cfu determination and spot assay.
Figure 3. Kinetics of bactericidal effects for (A) 5 μM KFF-acpP versus 5 μM KFF-acpP-scr, (B) 5 μM RXR-acpP versus 5 μM RXR-acpP-scr and (C) 10 μM Tat-acpP versus 10 μM Tat-acpP-scr against Salmonella wt (∼10^6 cfu/ml). After the indicated time points post treatment (15, 20, 40, 60, 120 min), aliquots of each sample were harvested to determine the number of viable cells over time (cfu/ml […]; left panels). Additional aliquots were subjected to spot assays on LB agar plates, including the indicated dilutions (right panels). The experiment was performed three times. Error bars indicate standard error of the mean.

[1] = system: Salmonella gene expression; test: RNA-seq transcriptomic response; type: cell-based, Salmonella enterica serovar Typhimurium; settings: 15 min
Procedure: Bacterial overnight cultures were diluted 1:100 in fresh MHB and grown to OD600 0.5. The obtained cultures were diluted to ∼10^6 cfu/ml in non-cation-adjusted MHB. Afterward, the bacterial solution was transferred into low-binding 5 ml tubes (LABsolute) along with the 20× PNA, peptide or PPNA solution. The final concentrations were 5 μM for KFF- and RXR-PNAs, and 10 μM for Tat-PNAs. Equimolar concentrations were used for the respective peptide control conditions. As a negative control, cells were treated with the respective volume of sterile nuclease-free water, which was used as solvent for the test compounds.
A time kinetic was performed for subsequent northern blot analysis (5, 10, 15 min), in which the reaction was stopped at the indicated time points by using RNAprotect Bacteria (Qiagen). For RNA-seq analyses, adding RNAprotect Bacteria at 15 min post treatment stopped the reactions with the indicated PPNA constructs or the respective peptide. After vortexing for 5 s, the samples were incubated at room temperature for 10 min, followed by cell pelleting at 4°C and 21 100 ×g for 20 min. Pellets were directly used for RNA isolation or stored at –20°C (<2 days) until further processing. RNA was purified from bacterial pellets using isolation protocol #3, as described above (0.5 mg/ml lysozyme, miRNeasy).
DNase treatment, cDNA library preparation and sequencing was conducted at Vertis (Munich, Germany). The RNA samples were first fragmented using ultrasound (4 pulses of 30 s each at 4°C). Then, an oligonucleotide adapter was ligated to the 3′ ends of the RNA molecules. First-strand cDNA synthesis was performed using M-MLV reverse transcriptase and the 3′ adapter as primer. The first-strand cDNA was purified and the 5′ Illumina TruSeq sequencing adapter was ligated to the 3′ end of the antisense cDNA. The resulting cDNA was PCR-amplified to about 10–20 ng/μl using a high fidelity DNA polymerase. The cDNA was purified using the Agencourt AMPure XP kit (Beckman Coulter Genomics) and was analyzed by capillary electrophoresis. For Illumina NextSeq sequencing, the samples were pooled in approximately equimolar amounts. The cDNA pool was sequenced on an Illumina NextSeq 500 system using 75 bp read length.
Reads from the RNA-Seq experiments were trimmed, filtered and mapped against the S. enterica subsp. enterica serovar Typhimurium SL1344 reference genome and the three plasmids pSLT_SL1344, pCol1B9_SL1344 (other name is p2), and pRSF1010_SL1344 ([19]). BBDuk was applied to trim bases with a Phred quality score of <10, and adapters were removed simultaneously. Reads were then mapped against the reference genome using BBMap (v38.84) and then assigned genomic features, including both coding sequences and annotated sRNAs ([19],[29]) using the featureCounts method of the Subread (2.0.1) package.
All downstream analysis was performed using packages from the R/Bioconductor project. The raw read counts were imported and analyzed with edgeR (v3.30.0). Each set of PNA-peptide conjugate experiments (i.e. experiments with KFF, RXR and Tat peptide) was analyzed simultaneously. Genes with less than 14.6 counts per million (CPM) in at least three libraries were filtered. This cutoff value was calculated using 10/L, where L is the library size of the smallest sample (minimum library size) in millions.
Raw read counts were normalized by trimmed mean of M values (TMM) normalization. Differential expression analysis was conducted using edgeR ([31]). Estimation of quasi-likelihood (QL) dispersions was then run with the […] function. Then contrasts between all samples versus the water controls were created as input for the glmQLTest function.
Genes with an absolute fold change >2 and an adjusted P-value (Benjamini–Hochberg, ([32])) <0.001 were considered differentially expressed.

[2] = system: wild-type (wt) Salmonella enterica serovar Typhimurium strain SL1344; settings: for MIC: non-cation-adjusted MHB, 37°C, 24 h; for MIC in μM, SL1344 wt: Table 3, three biological replicates
Procedure: MIC values were determined by broth microdilution according to standard protocols with a few modifications ([26]). An overnight bacterial cell culture, supplemented with the appropriate antibiotic when needed, was diluted 1:100 in fresh MHB and grown to OD600 0.5. The obtained culture was diluted to ∼10^5 cfu/ml or 10^6 cfu/ml, as indicated, in non-cation-adjusted MHB. Subsequently, 190 μl bacterial solution was dispensed into a 96-well plate (Thermo Fisher Scientific) along with 10 μl of a 20x PPNA, PNA or peptide working solution. Growth was monitored by measuring the OD at 600 nm every 20 min in a Synergy H1 plate reader (Biotek) with continuous double-orbital shaking (237 cpm) at 37°C for 24 h.

[3] = edgeR, versus water, 5 μM RXR-constructs, 10 μM Tat-constructs, triplicates, listed as PNATAT
[4] = Table 1, ∼10^5 cfu/ml, lowest concentration with OD600 < 0.1
[5] = Table 2, ∼10^6 cfu/ml, performed three times
[6] = edgeR, versus water, 5 μM KFF-/RXR-constructs, 10 μM Tat-constructs, triplicates, listed as PNAKFF
[7] = edgeR, versus water, 5 μM RXR-constructs, 10 μM Tat-constructs, triplicates, listed as PNARXR

Sequence | bactericidal effects (cfu/ml, spot assay) (Salmonella wt) | time post treatment from which killing / reduced cfu/ml was visible (Salmonella wt) | MIC ([2]; Table 1, ∼10^5 cfu/ml) | MIC [2, 4] | MIC [2, 5] | MIC in μM, SL1344 wt ([2]; ∼10^5 cfu/ml) | further results
GRKKKRRQRRRYK [Tat-acpP] | time-delayed and less pronounced | ≥ 40 min | 22 µg/mL | 5 µM | 10 µM | 5 µM | number of differentially expressed sRNAs, apart from AmgR upregulation ([1]; RNA-seq, 10 μM): five; logFC SL1344_0066A [1, 3]: 4.741; logFC SL1344_2742 [1, 3]: 3.794; logFC sseG ([1]; edgeR, versus water, 10 μM, triplicates): 3.37; logFC recJ ([1]; edgeR, versus water, 10 μM, triplicates, listed as PNATAT): 1.967
KFFKFFKFFK [KFF-acpP] | fast and strong killing | ≥ 15 min | 5 µg/mL | 1.25 µM | 5 µM | 1.25 µM | number of differentially expressed genes ([1]; absolute fold change >2 and FDR-adjusted P-value <0.001 versus water, 5 μM KFF-/RXR-constructs, 10 μM Tat-constructs): 5; upregulation of AmgR transcript levels ([1]; RNA-seq, 5 μM): ~1.9 fold; upregulation of mig-14, virK and yfiA mRNAs ([1]; RNA-seq, 5 μM): 2- to 4 fold; logFC yfiA ([1]; edgeR, versus water, 5 μM KFF-/RXR-constructs, 10 μM Tat-constructs, triplicates): 1.09; logFC mig-14 [1, 6]: 1.3466; logFC virK [1, 6]: 1.758
RXRRXRRXRRXRXB [RXR-acpP] | fast and strong killing | ≥ 15 min | 11 µg/mL | 2.5 µM | 5 µM | 2.5 µM | number of downregulated sRNAs, apart from the induction of AmgR ([1]; RNA-seq, 5 μM): four; upregulation of mig-14 ([1]; RNA-seq, 5 μM): 1.89 fold; logFC SL1344_0066A [1, 7]: 4.762; logFC SL1344_2742 [1, 7]: 3.54; logFC mgtA [1, 7]: 1.7; logFC hfq ([1]; edgeR, versus water, 5 μM, triplicates): -1.309
